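Here, GI50 denotes the concentration required for 50% inhibition of growth. TGI marks complete inhibition of growth.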
Experiments:
Assay in all cases: growth of human tumour cells (NCI), 384-well format; in the data active means GI50 below about 0.43 µM; inactive means the rest
[1] = test system: 786-0 renal
[2] = test system: A498 renal
[3] = test system: A549 NSCLC
[4] = test system: ACHN renal
[5] = test system: BT-549 breast
[6] = test system: CAKI-1 renal
[7] = test system: CCRF-CEM leukemia
[8] = test system: COLO 205 colon
[9] = test system: DU-145 prostate
[10] = test system: EKVX NSCLC
[11] = test system: HCC-2998 colon
[12] = test system: HCT-116 colon
[13] = test system: HCT-15 colon
[14] = test system: HL-60(TB) leukemia
[15] = test system: HOP-92 NSCLC
[16] = test system: HS 578T breast
[17] = test system: HT29 colon
[18] = test system: K-562 leukemia
[19] = test system: KM12 colon
[20] = test system: LOX IMVI melanoma
[21] = test system: M14 melanoma
[22] = test system: MALME-3M melanoma
[23] = test system: MCF7 breast
[24] = test system: MDA-MB-231 breast
[25] = test system: MDA-MB-435 melanoma
[26] = test system: MDA-MB-468 breast
[27] = test system: MOLT-4 leukemia
[28] = test system: NCI-H226 lung
[29] = test system: NCI-H23 lung
[30] = test system: NCI-H322M lung
[31] = test system: NCI-H460 NSCLC
[32] = test system: NCI/ADR-RES ovarian
[33] = test system: OVCAR-3 ovarian
[34] = test system: OVCAR-4 ovarian
[35] = test system: OVCAR-5 ovarian
[36] = test system: OVCAR-8 ovarian
[37] = test system: PC-3 prostate
[38] = test system: RPMI-8226 leukemia
[39] = test system: RXF 393 renal
[40] = test system: SF-268 CNS
[41] = test system: SF-295 CNS
[42] = test system: SF-539 CNS
[43] = test system: SK-MEL-28 melanoma
[44] = test system: SK-MEL-5 melanoma
[45] = test system: SK-OV-3 ovarian
[46] = test system: SN12C renal
[47] = test system: SNB-19 CNS
[48] = test system: SNB-75 CNS
[49] = test system: SR leukemia
[50] = test system: SW-620 colon
[51] = test system: T-47D breast
[52] = test system: TK-10 renal
[53] = test system: U251 glioblastoma
[54] = test system: UACC-257 melanoma
[55] = test system: UACC-62 melanoma
[56] = test system: UO-31 renal
[57] = test system: HOP-62 NSCLC
[58] = test system: IGROV1 ovarian
[59] = test system: NCI-H522 lung

O=C1Nc2c(C(F)(F)F)cccc2[C@@]1(c1ccc(O)cc1)c1ccc(OC(F)(F)F)cc1
18.9 µM: TGI [24]
0.047 µM: TGI [4]
19.4 µM: TGI [50]
1.13 µM: TGI [19]
5.96 µM: TGI [55]
3.78 µM: TGI [14]
15.2 µM: TGI [13]
20.8 µM: TGI [22]
28.7 µM: TGI [1]
0.017 µM: TGI [33]
26 µM: TGI [47]
28.2 µM: TGI [53]
16.9 µM: TGI [12]
13.7 µM: TGI [42]
27.1 µM: TGI [31]
17.7 µM: TGI [18]
0.0415 µM: TGI [11]
0.0263 µM: TGI [20]
0.0288 µM: TGI [56]
0.0619 µM: TGI [2]
< 0.01 µM: TGI [5] | TGI [8] | TGI [16] | TGI [26] | TGI [30] | TGI [34] | TGI [36] | TGI [39] | TGI [48] | TGI [51] | TGI [52]
18.1 µM: TGI [40]
0.0211 µM: TGI [46]
active: GI50 [2] 0.022 µM | GI50 [3] 0.0341 µM | GI50 [4] 0.0203 µM | GI50 [5] < 0.01 µM | GI50 [8] < 0.01 µM | GI50 [9] 0.0313 µM | GI50 [10] 0.017 µM | GI50 [11] < 0.01 µM | GI50 [12] 0.0252 µM | GI50 [13] 0.0186 µM | GI50 [15] 0.0443 µM | GI50 [16] < 0.01 µM | GI50 [19] 0.0145 µM | GI50 [20] 0.0118 µM | GI50 [23] 0.0121 µM | GI50 [26] < 0.01 µM | GI50 [28] 0.0108 µM | GI50 [29] < 0.01 µM | GI50 [30] < 0.01 µM | GI50 [32] < 0.01 µM | GI50 [33] < 0.01 µM | GI50 [34] < 0.01 µM | GI50 [35] 0.0503 µM | GI50 [36] < 0.01 µM | GI50 [37] 0.0123 µM | GI50 [39] < 0.01 µM | GI50 [41] 0.0212 µM | GI50 [45] 0.0584 µM | GI50 [46] < 0.01 µM | GI50 [48] < 0.01 µM | GI50 [51] < 0.01 µM | GI50 [52] < 0.01 µM | GI50 [55] 0.0331 µM | GI50 [56] 0.0151 µM
20.4 µM: TGI [35]
0.0113 µM: TGI [29]
0.0551 µM: TGI [10]
20.9 µM: TGI [25]
22.2 µM: TGI [27]
0.0363 µM: TGI [37]
9.54 µM: TGI [38]
0.0228 µM: TGI [32]
0.102 µM: TGI [9]
0.0622 µM: TGI [23]
inactive: GI50 [1] 15.3 µM | GI50 [6] 12.9 µM | GI50 [7] 12.8 µM | GI50 [14] 2.14 µM | GI50 [17] 12.9 µM | GI50 [18] 0.974 µM | GI50 [21] 3.36 µM | GI50 [22] 8.37 µM | GI50 [24] 3.86 µM | GI50 [25] 8.62 µM | GI50 [27] 10.4 µM | GI50 [31] 13.7 µM | GI50 [38] 3.03 µM | GI50 [40] 2.01 µM | GI50 [42] 1.6 µM | GI50 [43] 12.4 µM | GI50 [44] 10.9 µM | GI50 [47] 13.2 µM | GI50 [49] 2.04 µM | GI50 [50] 7.09 µM | GI50 [53] 14.9 µM | GI50 [54] 12 µM
25.7 µM: TGI [17]
24.4 µM: TGI [54]
25.5 µM: TGI [6] | TGI [7]
20.6 µM: TGI [15]
0.0276 µM: TGI [28]
22.9 µM: TGI [44]
0.148 µM: TGI [3]
24.9 µM: TGI [43]
13.8 µM: TGI [45]
4.15 µM: TGI [49]
0.0759 µM: TGI [41]
17.2 µM: TGI [21]

C[C@H](Nc1ncnc2nc[nH]c12)c1cc2ccc(F)cc2nc1-c1ccccn1
24.3 µM: TGI [14]
> 100 µM: TGI [1] | TGI [2] | TGI [3] | TGI [4] | TGI [5] | TGI [7] | TGI [8] | TGI [9] | TGI [10] | TGI [11] | TGI [12] | TGI [13] | TGI [57] | TGI [15] | TGI [16] | TGI [17] | TGI [18] | TGI [19] | TGI [20] | TGI [21] | TGI [22] | TGI [23] | TGI [24] | TGI [25] | TGI [26] | TGI [27] | TGI [28] | TGI [29] | TGI [30] | TGI [31] | TGI [59] | TGI [32] | TGI [33] | TGI [34] | TGI [36] | TGI [37] | TGI [38] | TGI [39] | TGI [40] | TGI [41] | TGI [42] | TGI [43] | TGI [44] | TGI [45] | TGI [46] | TGI [47] | TGI [48] | TGI [50] | TGI [51] | TGI [52] | TGI [53] | TGI [54] | TGI [55] | TGI [56]
54.1 µM: TGI [6]
93.2 µM: TGI [58]
8.99 µM: TGI [49]
inactive: GI50 [1] 30.4 µM | GI50 [2] 17.5 µM | GI50 [3] > 100 µM | GI50 [4] 96.1 µM | GI50 [5] 21.1 µM | GI50 [6] 8.35 µM | GI50 [7] 11 µM | GI50 [8] > 100 µM | GI50 [9] > 100 µM | GI50 [10] 37.6 µM | GI50 [11] > 100 µM | GI50 [12] > 100 µM | GI50 [13] > 100 µM | GI50 [14] 3.53 µM | GI50 [57] > 100 µM | GI50 [15] 12.7 µM | GI50 [16] 24.7 µM | GI50 [17] > 100 µM | GI50 [58] 21.2 µM | GI50 [18] > 100 µM | GI50 [19] > 100 µM | GI50 [20] > 100 µM | GI50 [21] > 100 µM | GI50 [22] 23.6 µM | GI50 [23] 21 µM | GI50 [24] 53 µM | GI50 [25] > 100 µM | GI50 [26] 59.2 µM | GI50 [27] 23.3 µM | GI50 [28] 35.7 µM | GI50 [29] > 100 µM | GI50 [30] > 100 µM | GI50 [31] > 100 µM | GI50 [59] 67.4 µM | GI50 [32] > 100 µM | GI50 [33] 34.7 µM | GI50 [34] > 100 µM | GI50 [36] > 100 µM | GI50 [37] 18.2 µM | GI50 [38] 22.4 µM | GI50 [39] 12.6 µM | GI50 [40] > 100 µM | GI50 [41] 29.4 µM | GI50 [42] > 100 µM | GI50 [43] > 100 µM | GI50 [44] > 100 µM | GI50 [45] 64.3 µM | GI50 [46] 12.4 µM | GI50 [47] > 100 µM | GI50 [48] 24.3 µM | GI50 [49] 1.06 µM | GI50 [50] > 100 µM | GI50 [51] 31.2 µM | GI50 [52] > 100 µM | GI50 [53] > 100 µM | GI50 [54] > 100 µM | GI50 [55] 29.2 µM | GI50 [56] 49.9 µM
